Numbered stars: 1 amine (or outer) side, 2 acyl side, 3 side chain; on linkers, the order of the positions; unused ones are H or OH. Square brackets hold non-standard residues; d marks the D form. Peptide text beside a SMILES is read from it. * marks the point of attachment. DOTA = O=C(O)CN1CCN(CC(=O)O)CCN(CC(=O)*)CCN(CC(=O)O)CC1; X1 = O=C(C1CSC(c2nc3ccc(N[*:1])cc3s2)=N1)[*:2]; X2 = N#Cc1ccc2cc(OCCCN*)ccc2n1; SEt = CCS*
Tests used:
[1] = molecular target: T1, recombinant human caspase-7 (Homo sapiens, UniProt P55210); assay: HPLC enzyme specificity assay of C-SNAF, caspase-7; assay type: biochemical; details: 25 μM probe, 0.735 μg/ml enzyme
T1 construct: purchased Calbiochem; host or cells: E. coli
Method: (§1) The specificity of C-SNAF towards other representative cysteine proteases such as caspase-7, caspase-9, cathepsin B, and legumain was examined.
(§2) Caspase (human, recombinant from E. coli) assays were performed for caspase-3 (4.9×10^−3 U; 7.35×10^−4 mg, Sigma), −7 (18.3 U; 7.35×10^−4 mg, Calbiochem), and −9 (0.3 U; 7.35×10^−4 mg, Calbiochem). All caspase assays were conducted in caspase buffer with 50 mM HEPES, 100 mM NaCl, 1 mM EDTA, 10 mM TCEP, 10% glycerol, and 0.1% CHAPS at pH 7.4. Cathepsin B (human liver; 0.27 U; 7.35×10^−4 mg, Calbiochem) and Legumain (human, recombinant from mouse myeloma cell line; >250 pmol/min/μg; 7.35×10^−4 mg, R&D Systems) were conducted in reaction buffer with 50 mM sodium acetate, 50 mM NaCl, 0.5 mM EDTA and 10 mM TCEP at pH 5.5. C-SNAF was diluted in the respective enzyme reaction buffer (25 μM, 1 mL) and remained at room temperature for 10 min, to which was then added the respective enzymes. Reactions were performed at 37° C., and monitored by HPLC hourly. The percentage conversion of the reaction was calculated based on the percentage of peak area of C-SNAF-cycl in the HPLC trace at 675 nm UV detection, which indicated the efficacy of enzyme cleavage of C-SNAF.

cathepsin B = molecular target: T2, cathepsin B (Homo sapiens, UniProt P07858); assay: HPLC enzyme specificity assay of C-SNAF, cathepsin B; assay type: biochemical; details: 25 μM probe, 0.735 μg/ml enzyme, pH 5.5
T2 construct: Cathepsin B (human liver; 0.27 U; 7.35×10^−4 mg, Calbiochem); purchased Calbiochem; host or cells: human liver (tissue-derived)
Method: as §1, §2

subcutaneous HeLa tumors [2] = assay: In vivo fluorescence imaging of DOX-treated HeLa tumor-bearing mice; design: species or system mouse
Method: C-SNAF or either of the control probes (5 nmol) was administered intravenously to tumor-bearing mice and whole animal fluorescence was longitudinally monitored using a Maestro fluorescence imager.
To establish tumors in 6-week-old female nu/nu mice, 2×10^6 HeLa cells suspended in 50 μL of a 50% v/v mixture of Matrigel in supplemented DMEM (10% FBS, 1% penstrep) were injected subcutaneously in the shoulders of the mouse. Tumors were grown until a single aspect was 0.7 to 0.9 cm (approximately 10-15 days), and then treatment consisting of 8 mg/kg DOX or saline was initiated. Treatments were administered intravenously once every 4 d for a total of three times. Total mouse body weight and tumor size (width and length by caliper) was measured every other day. Tumor volumes were calculated assuming ellipsoid shape with the formula (l×w^2)/2.
Two days following the final treatment, 5 nmol probe in saline was injected intravenously and fluorescence imaging began immediately on a Maestro hyperspectral fluorescent imaging system (PerkinElmer, Mass., USA) using a 635±25 nm excitation filter and a 675 nm long-pass emission filter, with images acquired from 670 to 900 nm. Tissue autofluorescence and Cy5.5 fluorescence were deconvolved, and tumor fluorescence intensity was quantified by region of interest measurement using Nuance v.3.0.1.2 software (Perkin Elmer, Mass., USA).

subcutaneous HeLa tumors [3] = assay: In vivo MR imaging of doxorubicin-treated HeLa tumors; design: species or system mouse
Method: Evaluation of activatable contrast agent probe 15 for MR imaging of caspase-3 activity in vivo was performed in nude mice bearing subcutaneous HeLa tumors. Tumors were implanted and grown for 10-15 days before receiving intratumoral injections of two doses of 0.2 mg doxorubicin separated by 2 days. Probe 15 or 1-ctrl (19) (0.1 mmol kg^−1) was injected intravenously the day before treatment (baseline) and four days post-treatment (treated). Spin-echo T1-weighted multislice MR images at 1 T were recorded before (pre-contrast) and every 4 min after contrast agent administration (post-contrast), and scanning was carried out for 4 h post-contrast for each mouse. Much brighter MR signals (T1 contrast) were observed 40 and 120 min after injection with probe 15 in treated tumors as compared to that in baseline tumors (FIG. 29A), or in treated tumors with 1-ctrl (19) (FIG. 29B).
In vivo MR imaging was performed on an Aspect M2 1T permanent magnet (Aspect Imaging, Shoham, Israel) using a 40 mm Transmit/Receive mouse body coil. During imaging, the animals were anaesthetized with isofluorane and their respiration and body temperature were constantly monitored. Intravenous contrast injection at 0.1 mmol/kg concentration was administered in a 100 μL volume for every imaging session. Multi-slice (312 μm in-plane, 12 slices with 1 mm thickness) T1-weighted spin echo images (TE/TR=8.9/250 ms, matrix 128×128, FOV=40 mm, NEX=6) were acquired, one before contrast injection and then every 4 min up to 4 h after contrast injection. A 1 mM Dotarem reference tube was inserted in the field of view to enable inter-session variability correction during post-processing. Each animal underwent two imaging session; one before DOX treatment (baseline), and one after DOX treatment (treated).
Acquired MR data were transferred as DICOM images to an offline workstation and ImageJ (NIH) was used for post processing and quantitative image analysis. This consisted of manual segmentation of tumor ROI for each slice, slice-wise normalization of mean tumor signal intensity with the 1 mM Dotarem reference standard to account for inter-session variability, followed by combining these normalized, slice-wise values to generate mean volumetric tumor signal intensities (SI) for each time point.
Signal enhancement was calculated at each time point as the difference between the tumor SI at that time point and the tumor SI in the pre-contrast (t=0) dataset. SE(t)=SI(t)−SI(t=0); for each mouse, for every session
This metric was used to quantify the difference in SE between the baseline (before DOX treatment) session and the treated session for each mouse, as a means to tease out the difference between the two contrast agents, probe 1 and 1-cntl (19) over the time course of the imaging session. % D(t)=[SE(t,treated)−SE(t,baseline)]/SE(t,baseline); for each mouse.

legumain = molecular target: T3, legumain (Homo sapiens, UniProt Q99538); assay: T1 measurement of probe 15 with legumain; assay type: biochemical; details: probe 208 μM, protease 50 nM, 1 T
T3 construct: purchased R&D Systems; host or cells: mouse myeloma cell line
Method: The enzyme specificity of probe 15 was studied by measuring the T1 value resulting from probe incubation (208 μM) with any of five relevant subcellular proteases (caspase-3, -7, -9, cathepsin B and legumain) in enzyme buffer. […] The reduced T1 value in solution was inhibited by the caspase inhibitor Z-VAD-fmk (50 μM).
Cathepsin B (human liver; 0.27 U; 7.35×10^−4 mg, Calbiochem) and Legumain (human, recombinant from mouse myeloma cell line; >250 pmol/min/μg; 7.35×10^−4 mg, R&D Systems) were conducted in reaction buffer with 50 mM sodium acetate, 50 mM NaCl, 0.5 mM EDTA and 10 mM TCEP at pH 5.5. The C-SNAF was diluted in the respective enzyme reaction buffer (25 μM, 1 mL) and remained at room temperature for 10 min, to which was added respective enzymes.

T3 sequence (Q99538 18-323): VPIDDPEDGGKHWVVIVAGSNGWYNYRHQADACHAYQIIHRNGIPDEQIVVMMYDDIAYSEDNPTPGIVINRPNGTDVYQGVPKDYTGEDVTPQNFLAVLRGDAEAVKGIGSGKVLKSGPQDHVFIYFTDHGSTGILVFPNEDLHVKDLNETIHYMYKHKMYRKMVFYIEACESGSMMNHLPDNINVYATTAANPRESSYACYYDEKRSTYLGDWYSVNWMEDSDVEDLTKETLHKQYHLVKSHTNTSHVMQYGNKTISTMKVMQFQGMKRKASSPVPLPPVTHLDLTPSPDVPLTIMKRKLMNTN
T1 sequence (P55210 24-198 limits assumed): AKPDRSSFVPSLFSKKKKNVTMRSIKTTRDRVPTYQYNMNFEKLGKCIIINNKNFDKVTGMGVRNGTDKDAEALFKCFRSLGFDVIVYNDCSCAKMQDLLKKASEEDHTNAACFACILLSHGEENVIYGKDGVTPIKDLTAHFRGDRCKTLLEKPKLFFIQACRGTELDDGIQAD
T1 sequence (P55210 207-303 limits assumed): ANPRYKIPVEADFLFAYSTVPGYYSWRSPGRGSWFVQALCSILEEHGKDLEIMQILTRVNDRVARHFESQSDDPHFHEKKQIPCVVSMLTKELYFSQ

SMILES | selectivity of activation by caspase-7 [1] | activation by cathepsin B (cathepsin B) | time of maximum tumor fluorescence after administration (subcutaneous HeLa tumors [2]; 5 nmol i.v.) | correlation (r) of maximum tumor fluorescence with maximum tumor size change (subcutaneous HeLa tumors [2]; 3×DOX-treated mice, 1 h after probe) | increase in fluorescence signal in DOX-treated tumors compared to saline-treated (subcutaneous HeLa tumors [2]; 4 h after 5 nmol probe, 3×DOX) | time of maximum SI enhancement in treated tumors after administration (subcutaneous HeLa tumors [3]; 0.1 mmol kg^−1 i.v.) | % difference in tumor SI enhancement, treated versus baseline (subcutaneous HeLa tumors [3]; 20 min) | % difference in tumor SI enhancement, treated versus baseline (subcutaneous HeLa tumors [3]; 120 min) | SI enhancement in treated mice higher than with 1-ctrl (19) (subcutaneous HeLa tumors [3]; 120 min after injection) | Gd uptake in tumors (ICP-MS) (subcutaneous HeLa tumors [3]; mouse, in vivo) | T1 value after incubation with legumain (legumain)
CCSSC[C@@H](NC(=O)[C@H](CC(=O)O)NC(=O)[C@@H](NC(=O)[C@H](CCC(=O)O)NC(=O)[C@H](CC(=O)O)NC(C)=O)C(C)C)C(=O)N[C@@H](CCCCNC(=O)CCCCCN1C(=CC=CC=CC2=[N+](CC)c3ccc4c(S(=O)(=O)[O-])cc(S(=O)(=O)O)cc4c3C2(C)C)C(C)(C)c2c1ccc1c(S(=O)(=O)O)cc(S(=O)(=O)O)cc21)C(=O)Nc1ccc2nc(C3=N[C@@H](C(=O)NCCCOc4ccc5nc(C#N)ccc5c4)CS3)sc2c1 [C-SNAF] | high selectivity of the probe toward effector caspases-3 and -7 | neither lysosomal cysteine proteases cathepsin B nor legumain could significantly activate | 1 h | −0.9 | 1.6 fold |  |  |  |  |  | 
CCSSCC(NC(=O)C(CC(=O)O)NC(=O)C(NC(=O)C(CCC(=O)O)NC(=O)C(CC(=O)O)NC(C)=O)C(C)C)C(=O)NC(CCCCNC(=O)CN1CCN(CC(=O)[O-])CCN(CC(=O)[O-])CCN(CC(=O)[O-])CC1)C(=O)Nc1ccc2nc(C3=NC(C(=O)NCCCOc4ccc5nc(C#N)ccc5c4)CS3)sc2c1.[Gd+3] (centres unmarked) [probe 15] (Ac-DEVDC(SEt)K(DOTA)[X1]-X2; configuration not given here) |  |  |  |  |  | 40 min | 62% | 169% | 77% | higher Gd level in treated tumors | No reduced T1 value

Reference: patent US9642922B2, “Caspase-triggered nano-aggregation probes and methods of use” (The Board of Trustees of the Leland Stanford Junior …, priority 2013, dated 2017)
